How the values were obtained:
Format in all cases: functional
RPMI-8226 [1] = assay: Cytotoxicity against human RPMI8226 cells assessed as cell growth at 0.01 uM after 48 hrs by sulforhodamine B assay relative to control; details: RPMI-8226, 48 h, read-out: Activity
HCC 2998 = assay: Cytotoxicity against human HCC2998 cells assessed as cell growth at 10 uM after 48 hrs by sulforhodamine B assay relative to control; details: HCC 2998, 48 h, read-out: Activity
HOP-62 = assay: Cytotoxicity against human HOP62 cells assessed as growth inhibition after 48 hrs by sulforhodamine B assay; details: HOP-62, 48 h
SR [2] = assay: Cytotoxicity against human SR cells assessed as cell growth at 1 uM after 48 hrs by sulforhodamine B assay relative to control; details: read-out: Activity
MCF7 = assay: Cytotoxicity against human MCF7 cells assessed as growth inhibition after 48 hrs by sulforhodamine B assay; details: MCF7, 48 h
NCI/ADR-RES = assay: Cytotoxicity against human NCI/ADR-RES cells assessed as growth inhibition after 48 hrs by sulforhodamine B assay
SN12C [3] = assay: Cytotoxicity against human SN12C cells assessed as cell growth at 0.01 uM after 48 hrs by sulforhodamine B assay relative to control; details: read-out: Activity
SR [4] = assay: Cytotoxicity against human SR cells assessed as cell growth at 10 uM after 48 hrs by sulforhodamine B assay relative to control; details: read-out: Activity
SN12C [5] = assay: Cytotoxicity against human SN12C cells assessed as cell growth at 10 uM after 48 hrs by sulforhodamine B assay relative to control; details: read-out: Activity
OVCAR-3 = assay: Cytotoxicity against human OVCAR3 cells assessed as growth inhibition after 48 hrs by sulforhodamine B assay; details: OVCAR-3, 48 h
OVCAR-8 [6] = assay: Cytotoxicity against human OVCAR8 cells assessed as growth inhibition after 48 hrs by sulforhodamine B assay; details: OVCAR-8, 48 h
SK-MEL-5 = assay: Cytotoxicity against human SK-MEL-5 cells assessed as cell growth at 1 uM after 48 hrs by sulforhodamine B assay relative to control; details: SK-MEL-5, 48 h, read-out: Activity
T47D = assay: Cytotoxicity against human T47D cells assessed as cell growth at 0.01 uM after 48 hrs by sulforhodamine B assay relative to control; details: read-out: Activity
CCRF-CEM [7] = assay: Cytotoxicity against human CCRF-CEM cells assessed as growth inhibition after 48 hrs by sulforhodamine B assay
A549 [8] = assay: Cytotoxicity against human A549/ATCC cells assessed as cell growth at 10 uM after 48 hrs by sulforhodamine B assay relative to control; details: A549, 48 h, read-out: Activity
SR [9] = assay: Cytotoxicity against human SR cells assessed as cell growth at 0.1 uM after 48 hrs by sulforhodamine B assay relative to control; details: read-out: Activity
NCI-H322M [10] = assay: Cytotoxicity against human NCI-H322M cells assessed as cell growth at 0.1 uM after 48 hrs by sulforhodamine B assay relative to control; details: read-out: Activity
A498 = assay: Cytotoxicity against human A498 cells assessed as growth inhibition after 48 hrs by sulforhodamine B assay; details: A498, 48 h
A549 [11] = assay: Cytotoxicity against human A549/ATCC cells assessed as growth inhibition after 48 hrs by sulforhodamine B assay; details: A549, 48 h
NCI-H522 [12] = assay: Cytotoxicity against human NCI-H522 cells assessed as cell growth at 0.1 uM after 48 hrs by sulforhodamine B assay relative to control; details: NCI-H522, 48 h, read-out: Activity
RPMI-8226 [13] = assay: Cytotoxicity against human RPMI8226 cells assessed as cell growth at 100 uM after 48 hrs by sulforhodamine B assay relative to control; details: RPMI-8226, 48 h, read-out: Activity
M14 = assay: Cytotoxicity against human M14 cells assessed as cell growth at 100 uM after 48 hrs by sulforhodamine B assay relative to control; details: M14, 48 h, read-out: Activity
UO-31 [14] = assay: Cytotoxicity against human UO31 cells assessed as cell growth at 10 uM after 48 hrs by sulforhodamine B assay relative to control; details: UO-31, 48 h, read-out: Activity
786-0 = assay: Cytotoxicity against human 786-0 cells assessed as growth inhibition after 48 hrs by sulforhodamine B assay; details: 786-0, 48 h
CCRF-CEM [15] = assay: Cytotoxicity against human CCRF-CEM cells assessed as cell growth at 100 uM after 48 hrs by sulforhodamine B assay relative to control; details: read-out: Activity
MOLT-4 = assay: Cytotoxicity against human MOLT4 cells assessed as cell growth at 0.01 uM after 48 hrs by sulforhodamine B assay relative to control; details: MOLT-4, 48 h, read-out: Activity
K562 = assay: Cytotoxicity against human K562 cells assessed as cell growth at 10 uM after 48 hrs by sulforhodamine B assay relative to control; details: K562, 48 h, read-out: Activity
SK-OV-3 = assay: Cytotoxicity against human SKOV3 cells assessed as growth inhibition after 48 hrs by sulforhodamine B assay; details: SK-OV-3, 48 h
UO-31 [16] = assay: Cytotoxicity against human UO31 cells assessed as cell growth at 100 uM after 48 hrs by sulforhodamine B assay relative to control; details: UO-31, 48 h, read-out: Activity
SN12C [17] = assay: Cytotoxicity against human SN12C cells assessed as cell growth at 1 uM after 48 hrs by sulforhodamine B assay relative to control; details: read-out: Activity
SN12C [18] = assay: Cytotoxicity against human SN12C cells assessed as cell growth at 100 uM after 48 hrs by sulforhodamine B assay relative to control; details: read-out: Activity
NCI-H522 [19] = assay: Cytotoxicity against human NCI-H522 cells assessed as growth inhibition after 48 hrs by sulforhodamine B assay; details: NCI-H522, 48 h
OVCAR-8 [20] = assay: Cytotoxicity against human OVCAR8 cells assessed as cell growth at 0.1 uM after 48 hrs by sulforhodamine B assay relative to control; details: OVCAR-8, 48 h, read-out: Activity
NCI-H322M [21] = assay: Cytotoxicity against human NCI-H322M cells assessed as growth inhibition after 48 hrs by sulforhodamine B assay
RXF 393 = assay: Cytotoxicity against human RXF393 cells assessed as growth inhibition after 48 hrs by sulforhodamine B assay; details: RXF 393, 48 h
MDA-MB-468 = assay: Cytotoxicity against human MDA-MB-468 cells assessed as cell growth at 0.01 uM after 48 hrs by sulforhodamine B assay relative to control; details: MDA-MB-468, 48 h, read-out: Activity
MDA-MB-435 = assay: Cytotoxicity against human MDA-MB-435 cells assessed as cell growth at 10 uM after 48 hrs by sulforhodamine B assay relative to control; details: MDA-MB-435, 48 h, read-out: Activity

## COc1cc(C(=O)/C=C/c2cc(-c3ccc4c(c3)OCO4)n[nH]2)cc(OC)c1OC
RPMI-8226 [1]
  growth at 0.01 µM: 101%
HCC 2998
  growth at 10 µM: -64%
HOP-62
  GI50: 2330 nM
  LC50: 24.5 µM
  TGI: 6.24 µM
SR [2]
  growth at 1 µM: 56%
MCF7
  GI50: 1060 nM
  LC50: 7.88 µM
  TGI: 2880 nM
NCI/ADR-RES
  GI50: 2990 nM
  LC50: > 100 µM
  TGI: 12.3 µM
SN12C [3]
  growth at 0.01 µM: 98%
SR [4]
  growth at 10 µM: -19%
SN12C [5]
  growth at 10 µM: -23%
OVCAR-3
  GI50: 1710 nM
  LC50: 7.17 µM
  TGI: 3.5 µM
OVCAR-8 [6]
  GI50: 2350 nM
  LC50: 24.8 µM
  TGI: 6.37 µM
SK-MEL-5
  growth at 1 µM: 89%
T47D
  growth at 0.01 µM: 90%
CCRF-CEM [7]
  GI50: 2000 nM
  LC50 (concentration killing 50% of cells): > 100 µM
  TGI: 5.74 µM
A549 [8]
  growth at 10 µM: -22%
SR [9]
  growth at 0.1 µM: 94%
NCI-H322M [10]
  growth at 0.1 µM: 94%
A498
  GI50: 1750 nM
  LC50: 15.3 µM
  TGI: 4.65 µM
A549 [11]
  GI50: 2130 nM
  LC50 (concentration giving 50% net cell kill): 30.1 µM
  TGI: 6.23 µM
NCI-H522 [12]
  growth at 0.1 µM: 90%
RPMI-8226 [13]
  growth at 100 µM: -47%
M14
  growth at 100 µM: -84%
UO-31 [14]
  growth at 10 µM: -96%
786-0
  GI50: 1840 nM
  LC50: 6.51 µM
  TGI: 3.46 µM
CCRF-CEM [15]
  growth at 100 µM: -20%
MOLT-4
  growth at 0.01 µM: 97%
K562
  growth at 10 µM: 3%
SK-OV-3
  GI50: 4.44 µM
  LC50: 38.8 µM
  TGI: 14.6 µM
UO-31 [16]
  growth at 100 µM: -95%
SN12C [17]
  growth at 1 µM: 90%
SN12C [18]
  growth at 100 µM: -96%
NCI-H522 [19]
  GI50: 1590 nM
  LC50: 7.3 µM
  TGI: 3.41 µM
OVCAR-8 [20]
  growth at 0.1 µM: 100%
NCI-H322M [21]
  GI50: 2090 nM
  TGI: 6.25 µM
NCI-H322M [21]; read-out: LC50 (the source's name)
  CC50: 24.3 µM
RXF 393
  GI50: 1310 nM
  LC50 (concentration killing 50% of cells): 6.59 µM
  TGI: 2940 nM
MDA-MB-468
  growth at 0.01 µM: 89%
MDA-MB-435
  growth at 10 µM: -29%
